Measured values reported in ChEMBL document CHEMBL5375972, “Discovery of Novel 2,3-Dihydro-1H-indene-5-sulfonamide NLRP3 Inflammasome Inhibitors Targeting Colon as a Potential Therapy for Colitis” (J Med Chem, 2023).
Activity calls are given as the source filed them. The rule behind the calls is not given here.

How the values were obtained:
[1] = Cytotoxicity against mouse J774.A1 cells incubated for 24 hrs by resazurin reagent based assay; format: toxicity, cell-based
[2] = Cytotoxicity against human HL7702 cells incubated for 48 hrs by resazurin reagent based assay; format: toxicity, cell-based; conditions: HL7702 (L02) cells
[3] = target: T1, Interferon-inducible protein AIM2 (Mus musculus) (UniProt Q91VJ1); assay: Inhibition of AIM2 inflammasome in mouse J774.A1 cells assessed as inhibition of IL-1 beta secretion at 10 uM pretreated with LPS and compound for 1 hr and later stimulated with poly (dA:dT) for 8 hrs by ELISA; format: cell-based; conditions: time 9.0 hrs
T1 sequence (whole entry): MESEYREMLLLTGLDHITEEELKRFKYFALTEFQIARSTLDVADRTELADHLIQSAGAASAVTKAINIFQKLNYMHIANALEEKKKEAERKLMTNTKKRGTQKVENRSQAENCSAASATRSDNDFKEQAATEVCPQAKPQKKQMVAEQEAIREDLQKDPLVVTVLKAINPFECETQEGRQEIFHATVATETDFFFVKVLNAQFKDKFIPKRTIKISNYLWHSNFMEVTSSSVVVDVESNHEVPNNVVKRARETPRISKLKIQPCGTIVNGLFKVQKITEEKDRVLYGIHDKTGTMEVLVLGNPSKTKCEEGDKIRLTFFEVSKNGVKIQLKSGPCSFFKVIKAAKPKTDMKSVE

[4] = tested on: J774.A1; assay: Inhibition of NF-kappaB pathway in mouse J774.A1 cells assessed as inhibition of LPS-induced TNF-alpha secretion at 0.1 to 30 uM pretreated for 1hr followed by LPS addition for 6 hrs by ELISA; format: cell-based; conditions: dose 0.1-30 µM, time 7.0 hrs
[5] = target: T2, NACHT, LRR and PYD domains-containing protein 3 (Homo sapiens, UniProt Q96P20); assay: Inhibition of NLRP3 inflammasome in human U-937 cells assessed as downregulation of LPS/ATP-induced caspase-1 p20 expression at 3 to 30 uM primed with LPS for 4.5 hrs followed by compound addition for 2.5 hrs and stimulated with […] for 13 hrs by Western blotting analysis; format: cell-based; conditions: dose 3-30 µM, time 15.5 hrs
T2 sequence (Q96P20 whole entry, the tested form may be a part): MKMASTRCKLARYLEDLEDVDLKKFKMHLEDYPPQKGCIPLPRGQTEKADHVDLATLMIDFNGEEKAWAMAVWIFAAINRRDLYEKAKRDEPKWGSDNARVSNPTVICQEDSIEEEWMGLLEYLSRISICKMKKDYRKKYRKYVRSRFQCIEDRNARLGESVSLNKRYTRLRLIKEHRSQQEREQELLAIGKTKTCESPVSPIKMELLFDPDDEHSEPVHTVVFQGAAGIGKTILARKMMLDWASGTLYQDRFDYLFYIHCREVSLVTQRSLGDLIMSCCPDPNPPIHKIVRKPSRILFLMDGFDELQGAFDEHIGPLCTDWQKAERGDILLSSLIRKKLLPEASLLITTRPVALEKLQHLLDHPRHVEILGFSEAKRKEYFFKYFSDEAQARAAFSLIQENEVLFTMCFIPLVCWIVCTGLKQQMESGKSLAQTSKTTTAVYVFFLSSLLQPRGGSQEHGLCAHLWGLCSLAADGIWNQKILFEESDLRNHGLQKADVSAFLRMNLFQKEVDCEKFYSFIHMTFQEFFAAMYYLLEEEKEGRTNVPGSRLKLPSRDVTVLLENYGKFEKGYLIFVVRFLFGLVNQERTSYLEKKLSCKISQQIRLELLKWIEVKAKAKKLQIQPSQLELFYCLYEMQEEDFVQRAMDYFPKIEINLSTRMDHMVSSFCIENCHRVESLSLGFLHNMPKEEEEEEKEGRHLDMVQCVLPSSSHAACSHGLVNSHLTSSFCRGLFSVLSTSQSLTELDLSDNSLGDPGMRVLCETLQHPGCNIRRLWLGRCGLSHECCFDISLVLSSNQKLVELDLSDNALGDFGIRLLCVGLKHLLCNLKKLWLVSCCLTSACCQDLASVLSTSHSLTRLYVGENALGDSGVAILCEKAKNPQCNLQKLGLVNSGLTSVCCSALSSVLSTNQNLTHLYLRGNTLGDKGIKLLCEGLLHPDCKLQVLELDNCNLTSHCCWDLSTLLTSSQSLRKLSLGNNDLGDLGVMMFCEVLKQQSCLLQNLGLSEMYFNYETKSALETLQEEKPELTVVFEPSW

[6] = tested on: J774.A1; assay: […] of pyroptosis in mouse J774.A1 cells assessed as decrease in LDH release at 0.1 to 30 uM stimulated with LPS for 4.5 hs followed by incubation with compound for 30 mins and ATP addition for 30 mins by microplate reader assay; format: functional, cell-based; conditions: dose 0.1-30 µM, time 1.0 hrs
[7] = target: T2, NACHT, LRR and PYD domains-containing protein 3; assay: Binding affinity to human NLRP3 assessed as equilibrium dissociation constant by surface plasmon resonance assay
[8] = Half life in Sprague-Dawley rat at 1 mg/kg,iv measured after 24 hrs by HPLC-MS/MS analysis; format: ADME, organism-based; conditions: in vivo
[9] = Clearance in Sprague-Dawley rat at 1 mg/kg,iv measured after 24 hrs by HPLC-MS/MS analysis; format: ADME, organism-based; conditions: in vivo
[10] = Cmax in Sprague-Dawley rat at 1 mg/kg,iv measured after 24 hrs by HPLC-MS/MS analysis; format: ADME, organism-based; parameters: dose 1 mg/kg, time 24 hrs, route iv; conditions: in vivo
[11] = Stability of compound in human plasma measured for 48 hrs; format: ADME, cell-free
[12] = Stability of compound in rat plasma measured for 48 hrs; format: ADME, cell-free
[13] = Drug distribution in Sprague-Dawley rat lung at 1 mg/kg,iv measured for 0.5 to 2 hrs by HPLC-MS/MS analysis; format: ADME, organism-based; conditions: in vivo, time 0.5-2 hrs
[14] = Drug distribution in Sprague-Dawley rat small intestine at 1 mg/kg,iv measured for 0.5 to 2 hrs by HPLC-MS/MS analysis; format: ADME, organism-based; conditions: in vivo, time 0.5-2 hrs
[15] = Drug distribution in Sprague-Dawley rat colon at 1 mg/kg,iv measured for 0.5 hrs by HPLC-MS/MS analysis; format: ADME, organism-based; conditions: read-out: Ct
[16] = Drug distribution in Sprague-Dawley rat plasma at 1 mg/kg,iv measured for 0.5 to 2 hrs by HPLC-MS/MS analysis; format: ADME, organism-based; conditions: in vivo, time 0.5-2 hrs
[17] = tested on: Mus musculus; assay: Anti-inflammatory activity in DSS-induced ulcerative colitis C57BL/6 mouse model assessed as increase in body weight at 10 mg/kg,ip administrated for 9 days; format: functional, organism-based; conditions: time 9.0 day
[18] = tested on: Mus musculus; assay: Anti-inflammatory activity in DSS-induced ulcerative colitis C57BL/6 mouse model assessed as reduction in disease activity index (DAI) score at 10 mg/kg,ip administrated for 9 days; format: functional, organism-based; conditions: time 9.0 day
[19] = tested on: Mus musculus; assay: Anti-inflammatory activity in DSS-induced ulcerative colitis C57BL/6 mouse model assessed as increase in colon length at 10 mg/kg,ip administrated for 9 days; format: functional, organism-based; conditions: time 9.0 day
[20] = tested on: Mus musculus; assay: Anti-inflammatory activity in DSS-induced ulcerative colitis C57BL/6 mouse model assessed as reduction in mucosal damage in colon at 10 mg/kg,ip administrated for 9 days by Hematoxylin-eosin staining based microscopic analysis; format: functional, organism-based; conditions: time 9.0 day
[21] = tested on: Mus musculus; assay: Anti-inflammatory activity in DSS-induced ulcerative colitis C57BL/6 mouse model assessed as decrease in IL-1beta expression in colon at 10 mg/kg,ip administrated for 9 days by immunohistochemistry analysis; format: functional, organism-based; conditions: time 9.0 day
[22] = tested on: Mus musculus; assay: Anti-inflammatory activity in DSS-induced ulcerative colitis C57BL/6 mouse model assessed as decrease in pro-IL-1beta protein expression in colon at 10 mg/kg,ip administrated for 9 days by Western blotting analysis; format: functional, organism-based; conditions: time 9.0 day
[23] = tested on: Mus musculus; assay: Anti-inflammatory activity in DSS-induced ulcerative colitis C57BL/6 mouse model assessed as decrease in caspase-1 p20 protein expression in colon at 10 mg/kg,ip administrated for 9 days by Western blotting analysis; format: functional, organism-based; conditions: time 9.0 day
[24] = Acute toxicity in Kunming mouse model assessed as lethargy at 2000 mg/kg,IG administration for 7 days; format: organism-based; conditions: in vivo, po, 168 h, time 7 day
[25] = Acute toxicity in Kunming mouse model assessed as clonic convulsion at 1000 mg/kg,IG administration for 7 days; format: organism-based; conditions: in vivo, po, 168 h, time 7 day
[26] = Acute toxicity in Kunming mouse model assessed as ruffled fur at 2000 mg/kg,IG administration for 7 days; format: organism-based; conditions: in vivo, po, 168 h, time 7 day
[27] = Subacute toxicity in C57BL/6 mouse assessed as body weight gain at 100 mg/kg,ip administrated for 14 days; format: organism-based; conditions: in vivo, 336 h, time 14 day
[28] = Subacute toxicity in C57BL/6 mouse assessed as change in heart weight at 100 mg/kg,ip administrated for 14 days; format: organism-based; conditions: in vivo, 336 h, time 14 day
[29] = Subacute toxicity in C57BL/6 mouse assessed as change in liver weight at 100 mg/kg,ip administrated for 14 days; format: organism-based; conditions: in vivo, 336 h, time 14 day
[30] = Subacute toxicity in C57BL/6 mouse assessed as change in spleen weight at 10 mg/kg,ip administrated for 14 days; format: organism-based; conditions: in vivo, 336 h, time 14 day
[31] = Subacute toxicity in C57BL/6 mouse assessed as heart histological changes at 10 mg/kg,ip administrated for 14 days; format: organism-based; conditions: in vivo, 336 h, time 14 day
[32] = Subacute toxicity in C57BL/6 mouse assessed as lung histological changes at 10 mg/kg,ip administrated for 14 days; format: organism-based; conditions: in vivo, 336 h, time 14 day
[33] = Subacute toxicity in C57BL/6 mouse assessed as lung histological changes at 100 mg/kg,ip administrated for 14 days; format: organism-based; conditions: in vivo, 336 h, time 14 day
[34] = Subacute toxicity in C57BL/6 mouse assessed as kidney histological changes at 10 mg/kg,ip administrated for 14 days; format: organism-based; conditions: in vivo, 336 h, time 14 day
[35] = Subacute toxicity in C57BL/6 mouse assessed as kidney histological changes at 100 mg/kg,ip administrated for 14 days; format: organism-based; conditions: in vivo, 336 h, time 14 day

CCCNS(=O)(=O)c1ccc2c(c1)CC(N(Cc1cc(Cl)ccc1OCCOC)C(=O)c1cc3ccccc3o1)C2 (racemic)
CC50 at 24 h [1]: > 30 µM
CC50 at 48 h [2]: > 1000 µM
inhibition [3]: inactive
inhibition [4]: inactive
inhibition [5]: Active
Activity [6]: Active
Kd [7]: 0.103 µM
half-life [8]: 1.5 h
clearance [9]: 78.4 mL/min/kg
Cmax [10]: 219 ng/mL
Stability [11]: Stable
Stability [12]: Stable
Drug uptake [13]: Active
Drug uptake [14]: Active
concentration at 0.5 h [15]: 35300 ng/g
Cp [16]: 2094.04 ng/g
Activity [17]: Active
Activity [18]: Active
Activity [19]: Active
Activity [20]: Active
Activity [21]: Active
Activity [22]: Active
Activity [23]: Active
Activity [24]: Non-Toxic
Activity [25]: Non-Toxic
Activity [26]: Non-Toxic
Activity [27]: Toxic
Activity [28]: Non-Toxic
Activity [29]: Non-Toxic
Activity [30]: Non-Toxic
Activity [31]: Non-Toxic
Activity [32]: Non-Toxic
Activity [33]: Non-Toxic
Activity [34]: Non-Toxic
Activity [35]: Non-Toxic
